Experiments:
Assay in all cases: radiometric filter-binding kinase assay
AURKA (human) = AURKA (human) (UniProt O14965)
AURKB (human) = AURKB (human) (UniProt Q96GD4)
BRSK1 (human) = BRSK1 (human) (UniProt Q8TDC3)
BTK (human) = BTK (human) (UniProt Q06187)
CDK2 CCNA2 (human) = CDK2 CCNA2 (human) (UniProt P20248+P24941)
CHEK1 (human) = CHEK1 (human) (UniProt O14757)
CSNK2A1 (human) = CSNK2A1 (human) (UniProt P68400)
DYRK2 (human) = DYRK2 (human) (UniProt Q92630)
EEF2K (human) = EEF2K (human) (UniProt O00418)
EPHA2 (human) = EPHA2 (human) (UniProt P29317)
ERBB4 (human) = ERBB4 (human) (UniProt Q15303)
FGFR1 (human) = FGFR1 (human) (UniProt P11362)
FGFR1 (human), sequence (P11362 whole entry, looked up): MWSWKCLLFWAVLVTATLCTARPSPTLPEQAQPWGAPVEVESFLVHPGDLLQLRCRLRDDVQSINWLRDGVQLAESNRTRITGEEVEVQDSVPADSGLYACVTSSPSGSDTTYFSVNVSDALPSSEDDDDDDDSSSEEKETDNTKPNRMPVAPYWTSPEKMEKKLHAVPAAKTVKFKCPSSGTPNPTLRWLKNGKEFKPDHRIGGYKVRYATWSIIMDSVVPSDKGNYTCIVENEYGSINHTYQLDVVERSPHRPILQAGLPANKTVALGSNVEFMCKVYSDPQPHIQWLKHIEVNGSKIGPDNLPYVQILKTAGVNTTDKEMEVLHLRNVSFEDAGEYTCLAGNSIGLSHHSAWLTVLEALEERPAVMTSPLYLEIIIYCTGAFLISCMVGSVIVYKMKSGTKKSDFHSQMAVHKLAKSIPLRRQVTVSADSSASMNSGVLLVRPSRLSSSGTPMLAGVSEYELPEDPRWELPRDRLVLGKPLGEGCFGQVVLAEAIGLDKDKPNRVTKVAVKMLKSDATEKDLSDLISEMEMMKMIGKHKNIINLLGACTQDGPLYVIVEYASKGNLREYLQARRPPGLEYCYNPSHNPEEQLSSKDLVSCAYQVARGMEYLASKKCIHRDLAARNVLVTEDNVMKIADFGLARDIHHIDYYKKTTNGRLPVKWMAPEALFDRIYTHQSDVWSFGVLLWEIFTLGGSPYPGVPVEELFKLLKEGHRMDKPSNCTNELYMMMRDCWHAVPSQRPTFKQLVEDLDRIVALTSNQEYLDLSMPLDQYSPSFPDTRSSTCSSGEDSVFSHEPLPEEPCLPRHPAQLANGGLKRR

FLT1 (human) = FLT1 (human) (UniProt P17948)
GCK (human) = GCK (human) (UniProt Q12851)
INSRR (human) = INSRR (human) (UniProt P14616)
INSRR (human), sequence (P14616 whole entry, looked up): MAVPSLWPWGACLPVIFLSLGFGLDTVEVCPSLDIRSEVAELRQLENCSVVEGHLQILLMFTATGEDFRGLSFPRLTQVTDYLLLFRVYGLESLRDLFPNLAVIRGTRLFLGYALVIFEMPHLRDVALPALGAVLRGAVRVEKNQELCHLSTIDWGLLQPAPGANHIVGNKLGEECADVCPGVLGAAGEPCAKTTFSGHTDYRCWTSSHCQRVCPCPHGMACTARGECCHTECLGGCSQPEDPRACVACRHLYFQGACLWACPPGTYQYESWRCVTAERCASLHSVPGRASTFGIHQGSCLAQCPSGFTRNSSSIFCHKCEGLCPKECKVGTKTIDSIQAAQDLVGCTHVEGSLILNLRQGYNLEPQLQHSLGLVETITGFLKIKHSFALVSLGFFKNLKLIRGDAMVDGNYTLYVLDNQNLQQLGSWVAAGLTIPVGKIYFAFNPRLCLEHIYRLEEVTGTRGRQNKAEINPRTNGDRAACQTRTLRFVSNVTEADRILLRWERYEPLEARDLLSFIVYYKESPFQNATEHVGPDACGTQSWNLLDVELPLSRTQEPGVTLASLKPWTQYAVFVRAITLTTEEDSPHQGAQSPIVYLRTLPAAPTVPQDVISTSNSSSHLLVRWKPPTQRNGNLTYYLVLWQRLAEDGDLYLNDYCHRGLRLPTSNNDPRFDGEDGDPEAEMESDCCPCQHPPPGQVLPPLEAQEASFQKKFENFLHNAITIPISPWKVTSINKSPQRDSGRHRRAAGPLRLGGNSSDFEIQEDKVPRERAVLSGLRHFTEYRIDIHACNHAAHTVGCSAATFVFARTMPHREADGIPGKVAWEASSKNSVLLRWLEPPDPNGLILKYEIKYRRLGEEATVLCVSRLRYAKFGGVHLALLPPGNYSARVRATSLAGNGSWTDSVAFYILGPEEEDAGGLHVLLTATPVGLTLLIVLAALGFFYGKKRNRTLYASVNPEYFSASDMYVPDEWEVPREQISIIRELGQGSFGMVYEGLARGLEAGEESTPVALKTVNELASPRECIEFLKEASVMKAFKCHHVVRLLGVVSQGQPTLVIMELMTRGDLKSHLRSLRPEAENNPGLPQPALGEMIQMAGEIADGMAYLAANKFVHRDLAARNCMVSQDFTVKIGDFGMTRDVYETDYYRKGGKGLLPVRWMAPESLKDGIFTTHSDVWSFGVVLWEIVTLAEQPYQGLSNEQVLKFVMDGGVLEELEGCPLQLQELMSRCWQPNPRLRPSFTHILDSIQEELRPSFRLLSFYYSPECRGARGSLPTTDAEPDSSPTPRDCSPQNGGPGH

MAP2K2 (human) = MAP2K2 (human) (UniProt P36507)
MAP2K6 (human) = MAP2K6 (human) (UniProt P52564)
MAPK10 (human) = MAPK10 (human) (UniProt P53779)
MAPK12 (human) = MAPK12 (human) (UniProt P53778)
MAPK15 (human) = MAPK15 (human) (UniProt Q8TD08)
MAPKAPK3 (human) = MAPKAPK3 (human) (UniProt Q16644)
MAPKAPK3 (human), sequence (Q16644 whole entry, looked up): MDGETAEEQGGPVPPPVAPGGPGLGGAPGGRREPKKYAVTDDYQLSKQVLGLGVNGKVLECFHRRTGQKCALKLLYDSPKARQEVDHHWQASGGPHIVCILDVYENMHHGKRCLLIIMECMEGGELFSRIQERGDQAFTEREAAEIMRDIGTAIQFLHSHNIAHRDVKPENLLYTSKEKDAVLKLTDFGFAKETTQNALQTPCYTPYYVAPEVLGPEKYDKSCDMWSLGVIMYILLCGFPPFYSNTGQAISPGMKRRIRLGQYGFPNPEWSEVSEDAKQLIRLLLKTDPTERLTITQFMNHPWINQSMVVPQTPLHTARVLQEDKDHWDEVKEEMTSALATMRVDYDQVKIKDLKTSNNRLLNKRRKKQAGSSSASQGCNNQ

MAPKAPK5 (human) = MAPKAPK5 (human) (UniProt Q8IW41)
MELK (human) = MELK (human) (UniProt Q14680)
MELK (human), sequence (Q14680 whole entry, looked up): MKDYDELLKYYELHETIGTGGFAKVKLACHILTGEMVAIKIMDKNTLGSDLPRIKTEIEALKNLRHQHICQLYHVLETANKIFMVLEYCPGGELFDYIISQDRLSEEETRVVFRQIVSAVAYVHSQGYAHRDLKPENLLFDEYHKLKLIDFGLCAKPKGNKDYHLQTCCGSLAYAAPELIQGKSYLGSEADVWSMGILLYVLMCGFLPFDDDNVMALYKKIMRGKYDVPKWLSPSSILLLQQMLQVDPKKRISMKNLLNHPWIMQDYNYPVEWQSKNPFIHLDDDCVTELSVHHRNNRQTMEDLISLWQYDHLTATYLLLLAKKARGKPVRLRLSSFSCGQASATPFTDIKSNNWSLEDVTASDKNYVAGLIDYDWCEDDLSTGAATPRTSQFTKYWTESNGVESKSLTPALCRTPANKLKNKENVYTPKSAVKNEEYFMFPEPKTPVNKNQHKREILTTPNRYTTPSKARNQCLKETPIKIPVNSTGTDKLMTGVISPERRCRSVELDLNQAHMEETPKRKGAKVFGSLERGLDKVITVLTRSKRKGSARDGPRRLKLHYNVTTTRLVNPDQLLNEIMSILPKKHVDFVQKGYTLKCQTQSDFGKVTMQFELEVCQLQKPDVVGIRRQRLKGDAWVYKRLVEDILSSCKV

MINK1 (human) = MINK1 (human) (UniProt Q8N4C8)
MINK1 (human), sequence (Q8N4C8 whole entry, looked up): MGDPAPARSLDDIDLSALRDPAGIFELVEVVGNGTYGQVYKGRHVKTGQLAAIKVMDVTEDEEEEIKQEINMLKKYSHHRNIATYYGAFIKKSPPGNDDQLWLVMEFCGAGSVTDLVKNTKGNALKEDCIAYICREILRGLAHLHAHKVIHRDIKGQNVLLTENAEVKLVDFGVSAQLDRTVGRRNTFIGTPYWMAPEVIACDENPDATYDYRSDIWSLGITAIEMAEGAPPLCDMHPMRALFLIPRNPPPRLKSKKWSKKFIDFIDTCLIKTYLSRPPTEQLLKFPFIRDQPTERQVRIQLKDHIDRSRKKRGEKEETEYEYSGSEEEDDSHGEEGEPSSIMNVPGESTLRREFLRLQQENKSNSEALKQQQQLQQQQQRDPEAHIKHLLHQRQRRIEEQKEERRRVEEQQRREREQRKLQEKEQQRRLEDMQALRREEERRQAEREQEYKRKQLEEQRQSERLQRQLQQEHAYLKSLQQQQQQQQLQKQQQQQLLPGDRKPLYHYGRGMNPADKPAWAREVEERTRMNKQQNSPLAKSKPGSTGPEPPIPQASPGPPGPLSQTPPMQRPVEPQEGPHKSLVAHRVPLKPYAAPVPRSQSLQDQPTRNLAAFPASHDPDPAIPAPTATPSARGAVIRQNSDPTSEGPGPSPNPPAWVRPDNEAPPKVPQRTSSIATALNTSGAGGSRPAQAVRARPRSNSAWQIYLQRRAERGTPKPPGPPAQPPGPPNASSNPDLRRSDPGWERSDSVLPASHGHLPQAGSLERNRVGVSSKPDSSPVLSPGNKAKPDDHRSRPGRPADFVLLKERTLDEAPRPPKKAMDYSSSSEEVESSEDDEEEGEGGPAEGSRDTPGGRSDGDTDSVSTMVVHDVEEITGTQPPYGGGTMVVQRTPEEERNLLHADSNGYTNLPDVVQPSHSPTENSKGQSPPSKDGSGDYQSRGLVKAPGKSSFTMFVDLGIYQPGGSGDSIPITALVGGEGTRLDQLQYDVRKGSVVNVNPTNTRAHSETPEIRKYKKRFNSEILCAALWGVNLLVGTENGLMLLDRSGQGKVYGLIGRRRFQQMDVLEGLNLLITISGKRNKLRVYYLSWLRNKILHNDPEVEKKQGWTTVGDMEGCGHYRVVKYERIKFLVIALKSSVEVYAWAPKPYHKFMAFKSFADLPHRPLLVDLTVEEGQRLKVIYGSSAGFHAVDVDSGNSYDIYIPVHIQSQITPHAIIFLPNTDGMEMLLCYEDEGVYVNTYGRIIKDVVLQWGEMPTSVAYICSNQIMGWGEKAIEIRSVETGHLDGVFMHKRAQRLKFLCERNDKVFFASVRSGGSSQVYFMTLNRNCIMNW

MST4 (human) = MST4 (human) (UniProt Q9P289)
[1] = system: PAK2 (human), Q13177 [T402E]
PHKG1 (human) = PHKG1 (human) (UniProt Q16816)
PIM2 (human) = PIM2 (human) (UniProt Q9P1W9)
PIM3 (human) = PIM3 (human) (UniProt Q86V86)
PRKACA (human) = PRKACA (human) (UniProt P17612)
PRKCA (human) = PRKCA (human) (UniProt P17252)
RIPK2 (human) = RIPK2 (human) (UniProt O43353)
RPS6KA3 KD1 KD2 (human) = RPS6KA3 KD1 KD2 (human) (UniProt P51812)
[2] = system: SGK1 (human), O00141 [S422D]
SRPK1 (human) = SRPK1 (human) (UniProt Q96SB4)
TAOK1 (human) = TAOK1 (human) (UniProt Q7L7X3)

AURKA (human), sequence (O14965 whole entry, looked up): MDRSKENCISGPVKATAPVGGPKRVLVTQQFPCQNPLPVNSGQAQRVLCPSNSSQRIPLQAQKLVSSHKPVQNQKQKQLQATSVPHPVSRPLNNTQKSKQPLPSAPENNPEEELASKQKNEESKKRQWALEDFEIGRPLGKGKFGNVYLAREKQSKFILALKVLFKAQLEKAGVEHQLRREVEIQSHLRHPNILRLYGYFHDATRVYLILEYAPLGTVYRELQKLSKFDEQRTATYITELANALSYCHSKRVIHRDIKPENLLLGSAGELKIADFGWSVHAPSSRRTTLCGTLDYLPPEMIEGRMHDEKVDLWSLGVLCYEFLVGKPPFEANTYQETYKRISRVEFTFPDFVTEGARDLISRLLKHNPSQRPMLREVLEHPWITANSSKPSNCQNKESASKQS

residual activity (AURKA (human); compound 1.0 µM): 111% | residual activity (AURKA (human); compound 10.0 µM): 91% | residual activity (AURKB (human); compound 1.0 µM): 67% | residual activity (AURKB (human); compound 10.0 µM): 42% | residual activity (BRSK1 (human); compound 1.0 µM): 107% | residual activity (BRSK1 (human); compound 10.0 µM): 58% | residual activity (BTK (human); compound 1.0 µM): 122% | residual activity (BTK (human); compound 10.0 µM): 58% | residual activity (CDK2 CCNA2 (human); compound 1.0 µM): 32% | residual activity (CDK2 CCNA2 (human); compound 10.0 µM): 6% | residual activity (CHEK1 (human); compound 1.0 µM): 95% | residual activity (CHEK1 (human); compound 10.0 µM): 92% | residual activity (CSNK2A1 (human); compound 1.0 µM): 91% | residual activity (CSNK2A1 (human); compound 10.0 µM): 93% | residual activity (DYRK2 (human); compound 1.0 µM): 91% | residual activity (DYRK2 (human); compound 10.0 µM): 91% | residual activity (EEF2K (human); compound 1.0 µM): 90% | residual activity (EEF2K (human); compound 10.0 µM): 56% | residual activity (EPHA2 (human); compound 1.0 µM): 99% | residual activity (EPHA2 (human); compound 10.0 µM): 78% | residual activity (ERBB4 (human); compound 1.0 µM): 71% | residual activity (ERBB4 (human); compound 10.0 µM): 67% | residual activity (FGFR1 (human); compound 1.0 µM): 97% | residual activity (FGFR1 (human); compound 10.0 µM): 72% | residual activity (FLT1 (human); compound 1.0 µM): 101% | residual activity (FLT1 (human); compound 10.0 µM): 53% | residual activity (GCK (human); compound 1.0 µM): 77% | residual activity (GCK (human); compound 10.0 µM): 41% | residual activity (INSRR (human); compound 1.0 µM): 117% | residual activity (INSRR (human); compound 10.0 µM): 61% | residual activity (MAP2K2 (human); compound 1.0 µM): 107% | residual activity (MAP2K2 (human); compound 10.0 µM): 77% | residual activity (MAP2K6 (human); compound 1.0 µM): 76% | residual activity (MAP2K6 (human); compound 10.0 µM): 83% | residual activity (MAPK10 (human); compound 1.0 µM): 73% | residual activity (MAPK10 (human); compound 10.0 µM): 68% | residual activity (MAPK12 (human); compound 1.0 µM): 94% | residual activity (MAPK12 (human); compound 10.0 µM): 72% | residual activity (MAPKAPK3 (human); compound 1.0 µM): 87% | residual activity (MAPKAPK3 (human); compound 10.0 µM): 85% | residual activity (MAPKAPK5 (human); compound 1.0 µM): 90% | residual activity (MAPKAPK5 (human); compound 10.0 µM): 88% | residual activity (MELK (human); compound 1.0 µM): 88% | residual activity (MELK (human); compound 10.0 µM): 29% | residual activity (MINK1 (human); compound 1.0 µM): 66% | residual activity (MINK1 (human); compound 10.0 µM): 52% | residual activity (MST4 (human); compound 1.0 µM): 113% | residual activity (MST4 (human); compound 10.0 µM): 102% | residual activity ([1]; compound 1.0 µM): 83% | residual activity ([1]; compound 10.0 µM): 78% | residual activity (PHKG1 (human); compound 1.0 µM): 77% | residual activity (PHKG1 (human); compound 10.0 µM): 59% | residual activity (PIM2 (human); compound 1.0 µM): 34% | residual activity (PIM2 (human); compound 10.0 µM): 12% | residual activity (PIM3 (human); compound 1.0 µM): 56% | residual activity (PIM3 (human); compound 10.0 µM): 27% | residual activity (PRKACA (human); compound 1.0 µM): 83% | residual activity (PRKACA (human); compound 10.0 µM): 95% | residual activity (PRKCA (human); compound 1.0 µM): 117% | residual activity (PRKCA (human); compound 10.0 µM): 55% | residual activity (RIPK2 (human); compound 1.0 µM): 80% | residual activity (RIPK2 (human); compound 10.0 µM): 57% | residual activity (RPS6KA3 KD1 KD2 (human); compound 1.0 µM): 39% | residual activity (RPS6KA3 KD1 KD2 (human); compound 10.0 µM): 11% | residual activity ([2]; compound 1.0 µM): 96% | residual activity ([2]; compound 10.0 µM): 69% | residual activity (SRPK1 (human); compound 1.0 µM): 92% | residual activity (SRPK1 (human); compound 10.0 µM): 101% | residual activity (TAOK1 (human); compound 1.0 µM): 77% | residual activity (TAOK1 (human); compound 10.0 µM): 57%
SMILES: N#Cc1c(C2CCNCC2)cc(-c2c(O)cccc2OCC2CC2)nc1N
residual activity (MAPK15 (human); compound 1.0 µM): 59% | residual activity (MAPK15 (human); compound 10.0 µM): 9%
